Where “and” joins values, the source holds several entries; their conditions need not be identical. Equal entries are not always repeated. Numbers after ± are expanded uncertainties.
What was measured:
[1] = molar enthalpy of vaporization or sublimation; settings: 298.15 K; Crystal; Ebulliometric method (Recirculating still)
[2] = Crystal, Calculated from knudsen effusion weight loss

CC(=O)c1cccc([N+](=O)[O-])c1 [1-(3-nitrophenyl)ethanone]
Settings | molar enthalpy [kcal/mol]
[1] | 23.69 ± 0.215

[2]
Settings | vapor or sublimation pressure
300.2 K | 7e-05 ± 4e-06 kPa and 6.8e-05 ± 3e-06 kPa and 6.6e-05 ± 3e-06 kPa
302.18 K | 8.8e-05 ± 4e-06 kPa and 8.9e-05 ± 4e-06 kPa
304.08 K | 0.000113 ± 6e-06 kPa and 0.000115 ± 6e-06 kPa
306.2 K | 0.000149 ± 7e-06 kPa and 0.000148 ± 7e-06 kPa and 0.000152 ± 8e-06 kPa
308.16 K | 0.000192 ± 1e-05 kPa and 0.000191 ± 1e-05 kPa and 0.000189 ± 9e-06 kPa
310.08 K | 0.000238 ± 1.2e-05 kPa and 0.000241 ± 1.2e-05 kPa and 0.000249 ± 1.2e-05 kPa
312.19 K | 0.000321 ± 1.6e-05 kPa and 0.000305 ± 1.5e-05 kPa and 0.000302 ± 1.5e-05 kPa
314.15 K | 0.000404 ± 2e-05 kPa and 0.000392 ± 2e-05 kPa and 0.000387 ± 1.9e-05 kPa
316.08 K | 0.000499 ± 2.5e-05 kPa and 0.000491 ± 2.5e-05 kPa and 0.00049 ± 2.5e-05 kPa
318.18 K | 0.000669 ± 3.4e-05 kPa and 0.000628 ± 3.1e-05 kPa and 0.000621 ± 3.1e-05 kPa
320.15 K | 0.000817 ± 4.1e-05 kPa and 0.000801 ± 4e-05 kPa and 0.00079 ± 4e-05 kPa
322.08 K | 0.001007 ± 0.0001 kPa and 0.001 ± 5e-05 kPa and 0.000997 ± 5e-05 kPa

CC(=O)c1ccc([N+](=O)[O-])cc1 [1-(4-nitrophenyl)ethanone]
Settings | molar enthalpy [kcal/mol]
[1] | 23.2 ± 0.263

[2]
Settings | vapor or sublimation pressure
302.19 K | 9.1e-05 ± 5e-06 kPa and 9e-05 ± 5e-06 kPa
304.15 K | 0.000121 ± 6e-06 kPa and 0.000119 ± 6e-06 kPa and 0.000118 ± 6e-06 kPa
306.07 K | 0.000149 ± 7e-06 kPa and 0.000156 ± 8e-06 kPa and 0.000151 ± 8e-06 kPa
306.19 K | 0.000148 ± 7e-06 kPa and 0.000151 ± 8e-06 kPa and 0.000147 ± 7e-06 kPa
308.16 K | 0.000192 ± 1e-05 kPa and 0.000193 ± 1e-05 kPa and 0.00019 ± 1e-05 kPa
310.07 K | 0.000239 ± 1.2e-05 kPa and 0.000235 ± 1.2e-05 kPa and 0.000243 ± 1.2e-05 kPa
312.19 K | 0.000329 ± 1.6e-05 kPa and 0.000306 ± 1.5e-05 kPa and 0.000304 ± 1.5e-05 kPa
314.16 K | 0.000402 ± 2e-05 kPa and 0.000397 ± 2e-05 kPa and 0.000392 ± 2e-05 kPa
316.07 K | 0.000494 ± 2.5e-05 kPa and 0.000502 ± 2.5e-05 kPa and 0.000503 ± 2.5e-05 kPa
318.18 K | 0.000657 ± 3.3e-05 kPa and 0.000619 ± 3.1e-05 kPa and 0.000617 ± 3.1e-05 kPa
320.13 K | 0.000795 ± 4e-05 kPa and 0.000792 ± 4e-05 kPa and 0.00078 ± 3.9e-05 kPa
322.06 K | 0.00096 ± 4.8e-05 kPa and 0.000984 ± 4.9e-05 kPa and 0.000991 ± 5e-05 kPa

From the NIST ThermoML archive (doi:10.1016/j.jct.2011.01.006)
